# In patent US20240425490A1, “SULFAMIDE RIBONUCLEOTIDE REDUCTASE (RNR) INHIBITORS AND USES THEREOF” (Boundless Bio, Inc., priority 2021, published 2024):
# Target: T1, RNR (RNR1:RNR2 1:1) (Homo sapiens, UniProt P23921)
# T1 sequence (P23921 1-792): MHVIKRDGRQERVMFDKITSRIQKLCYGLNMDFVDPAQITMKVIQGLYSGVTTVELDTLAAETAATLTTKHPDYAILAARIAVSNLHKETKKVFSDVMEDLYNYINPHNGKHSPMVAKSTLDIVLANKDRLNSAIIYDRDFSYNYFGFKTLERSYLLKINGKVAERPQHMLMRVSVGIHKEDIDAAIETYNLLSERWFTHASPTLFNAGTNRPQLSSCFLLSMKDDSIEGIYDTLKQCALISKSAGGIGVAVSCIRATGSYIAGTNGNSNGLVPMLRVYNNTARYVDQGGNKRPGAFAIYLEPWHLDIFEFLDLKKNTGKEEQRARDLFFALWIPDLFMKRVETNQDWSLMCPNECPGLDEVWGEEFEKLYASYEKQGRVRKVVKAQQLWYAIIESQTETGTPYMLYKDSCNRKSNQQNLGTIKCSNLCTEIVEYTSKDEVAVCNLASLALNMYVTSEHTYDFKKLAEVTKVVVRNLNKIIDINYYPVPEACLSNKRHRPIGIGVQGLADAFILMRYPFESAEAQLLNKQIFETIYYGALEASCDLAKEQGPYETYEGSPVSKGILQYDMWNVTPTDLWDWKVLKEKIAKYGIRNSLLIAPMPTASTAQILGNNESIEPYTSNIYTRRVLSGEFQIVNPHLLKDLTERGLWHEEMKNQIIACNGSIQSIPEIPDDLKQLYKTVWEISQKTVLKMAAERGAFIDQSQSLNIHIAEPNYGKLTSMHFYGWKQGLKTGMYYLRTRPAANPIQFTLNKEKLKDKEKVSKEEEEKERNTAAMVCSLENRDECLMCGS
# Test: RNR enzyme activity, rapid-fire mass spectrometry (RFMS) assay
# Format: biochemical
# Settings: RNR 50 nM, CDP 5 μM, ATP 1 mM, 37° C., 45 min, compounds screened up to 50 μM, read-out: RF/MS IC50
# Outline: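 Human RNR1:RNR2 (1:1, 50 nM) pre-incubated 15 min at room temperature with compound, then reacted with 5 μM CDP and 1 mM ATP, no NADPH, for 45 min at 37 °C. Stopped with 6% HCOOH; turnover read by rapid-fire mass spectrometry; Triapine and hydroxyurea as reference compounds.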
row,Compound,IC50 [µM]
1,"Cc1ccc(F)c([C@@H](C)[C@H](NS(=O)(=O)N2CCCC[C@@H]2C(N)=O)c2n[nH]c(=O)o2)c1C [Example 12, (R)-1-(N-((1S,2R)-2-(6-fluoro-2,3-dimethylphenyl)-1-(5-oxo-4,5-dihydro-1,3,4-oxadiazol-2-yl)propyl)sulfamoyl)piperidine-2-carboxamide]",1 to 10
2,"COC(=O)C1CC12CCN(S(=O)(=O)N[C@H](c1n[nH]c(=O)o1)C(C)c1c(F)ccc(C)c1C)CC2 (stereo partly drawn) [Example 92, methyl 6-(N-((1S)-2-(6-fluoro-2,3-dimethylphenyl)-1-(5-oxo-4,5-dihydro-1,3,4-oxadiazol-2-yl)propyl)sulfamoyl)-6-azaspiro[2.5]octane-1-carboxylate]",0.1 to 1
3,"Cc1ccc(F)c([C@@H](C)[C@H](NS(=O)(=O)N2CCC(c3c[nH]c4ccccc34)CC2)c2n[nH]c(=O)o2)c1C [Example 68, N-((1S,2R)-2-(6-fluoro-2,3-dimethylphenyl)-1-(5-oxo-4,5-dihydro-1,3,4-oxadiazol-2-yl)propyl)-4-(1H-indol-3-yl)piperidine-1-sulfonamide]",1 to 10
4,"Cc1ccc(F)c([C@H](C)[C@H](NS(=O)(=O)N2CCCC(C)(C)C2)c2n[nH]c(=O)o2)c1C [Example 119, N-((1S,2S)-2-(6-fluoro-2,3-dimethylphenyl)-1-(5-oxo-4,5-dihydro-1,3,4-oxadiazol-2-yl)propyl)-3,3-dimethylpiperidine-1-sulfonamide]",1 to 10
5,"Cc1ccc(F)c(C(C)[C@H](NS(=O)(=O)N2CC3C(C2)C3(F)F)c2n[nH]c(=O)o2)c1C (stereo partly drawn) [Example 106, 6,6-difluoro-N-((1S)-2-(6-fluoro-2,3-dimethylphenyl)-1-(5-oxo-4,5-dihydro-1,3,4-oxadiazol-2-yl)propyl)-3-azabicyclo[3.1.0]hexane-3-sulfonamide]",0.1 to 1
6,"Cc1ccc(F)c([C@H](C)[C@H](NS(=O)(=O)N2CCC3(CCO3)CC2)c2n[nH]c(=O)o2)c1C [Example 61, N-((1S,2S)-2-(6-fluoro-2,3-dimethylphenyl)-1-(5-oxo-4,5-dihydro-1,3,4-oxadiazol-2-yl)propyl)-1-oxa-7-azaspiro[3.5]nonane-7-sulfonamide]",10 to 100
7,"Cc1ccc(F)c([C@@H](C)[C@H](NS(=O)(=O)N2CCCC(C)(C)C2)c2n[nH]c(=O)o2)c1C [Example 117, N-((1S,2R)-2-(6-fluoro-2,3-dimethylphenyl)-1-(5-oxo-4,5-dihydro-1,3,4-oxadiazol-2-yl)propyl)-3,3-dimethylpiperidine-1-sulfonamide]",1 to 10
8,"C#CC1CCN(S(=O)(=O)N[C@H](c2n[nH]c(=O)o2)[C@H](C)c2c(F)ccc(C)c2C)CC1 [Example 48, 4-ethynyl-N-((1S,2R)-2-(6-fluoro-2,3-dimethylphenyl)-1-(5-oxo-4,5-dihydro-1,3,4-oxadiazol-2-yl)propyl)piperidine-1-sulfonamide]",1 to 10
9,"Cc1ccc(F)c([C@H](C)[C@H](NS(=O)(=O)N2CCC(C(F)F)CC2)c2n[nH]c(=O)o2)c1C [Example 44, 4-(difluoromethyl)-N-((1S,2S)-2-(6-fluoro-2,3-dimethylphenyl)-1-(5-oxo-4,5-dihydro-1,3,4-oxadiazol-2-yl)propyl)piperidine-1-sulfonamide]",1 to 10
10,"Cc1ccc(F)c([C@@H](C)[C@H](NS(=O)(=O)N2C3CCC2CC(F)(F)C3)c2n[nH]c(=O)o2)c1C [Example 110, 3,3-difluoro-N-((1S,2R)-2-(6-fluoro-2,3-dimethylphenyl)-1-(5-oxo-4,5-dihydro-1,3,4-oxadiazol-2-yl)propyl)-8-azabicyclo[3.2.1]octane-8-sulfonamide]",0.1 to 1
11,"CNC(=O)CC1CCN(S(=O)(=O)N[C@H](c2n[nH]c(=O)o2)C(C)c2c(F)ccc(C)c2C)CC1 (stereo partly drawn) [Example 66, 2-(1-(N-((1S)-2-(6-fluoro-2,3-dimethylphenyl)-1-(5-oxo-4,5-dihydro-1,3,4-oxadiazol-2-yl)propyl)sulfamoyl)piperidin-4-yl)-N-methylacetamide]",10 to 100
12,"Cc1ccc(F)c([C@@H](C)[C@H](NS(=O)(=O)N2CC(C)CC(C)C2)c2n[nH]c(=O)o2)c1C (stereo partly drawn) [Example 121, N-((1S,2R)-2-(6-fluoro-2,3-dimethylphenyl)-1-(5-oxo-4,5-dihydro-1,3,4-oxadiazol-2-yl)propyl)-3,5-dimethylpiperidine-1-sulfonamide]",1 to 10
13,"CNC(=O)C1CCN(S(=O)(=O)N[C@H](c2n[nH]c(=O)o2)[C@@H](C)c2c(F)ccc(C)c2C)CC1 [Example 56, 1-(N-((1S,2S)-2-(6-fluoro-2,3-dimethylphenyl)-1-(5-oxo-4,5-dihydro-1,3,4-oxadiazol-2-yl)-propyl)sulfamoyl)-N-methylpiperidine-4-carboxamide]",10 to 100
14,"Cc1ccc(F)c([C@H](C)[C@H](NS(=O)(=O)N2CCCCC2CC(N)=O)c2n[nH]c(=O)o2)c1C (stereo partly drawn) [Example 16, 2-(1-(N-((1S,2S)-2-(6-fluoro-2,3-dimethylphenyl)-1-(5-oxo-4,5-dihydro-1,3,4-oxadiazol-2-yl)propyl)sulfamoyl)piperidin-2-yl)acetamide]",1 to 10

# The remaining lines, values ahead:
row,IC50 [µM],Compound
1,1 to 10,"Cc1ccc(F)c([C@@H](C)[C@H](NS(=O)(=O)N2CCC3(CCCN(C)C3)CC2)c2n[nH]c(=O)o2)c1C [Example 83, N-((1S,2R)-2-(6-fluoro-2,3-dimethylphenyl)-1-(5-oxo-4,5-dihydro-1,3,4-oxadiazol-2-yl)propyl)-2-methyl-2,9-diazaspiro[5.5]undecane-9-sulfonamide]"
2,1 to 10,"Cc1ccc(F)c(C(C)[C@H](NS(=O)(=O)N2CCC(C(C)O)CC2)c2n[nH]c(=O)o2)c1C (stereo partly drawn) [Example 32, N-((1S)-2-(6-fluoro-2,3-dimethylphenyl)-1-(5-oxo-4,5-dihydro-1,3,4-oxadiazol-2-yl)propyl)-4-(1-hydroxyethyl)piperidine-1-sulfonamide]"
3,1 to 10,"Cc1ccc(F)c([C@@H](C)[C@H](NS(=O)(=O)N2CC3CCCC(C3)C2)c2n[nH]c(=O)o2)c1C [Example 43, N-((1S,2R)-2-(6-fluoro-2,3-dimethylphenyl)-1-(5-oxo-4,5-dihydro-1,3,4-oxadiazol-2-yl)propyl)-3-zabicyclo[3.3.1]nonane-3-sulfonamide]"
4,1 to 10,"Cc1ccc(F)c([C@H](C)[C@H](NS(=O)(=O)N2CCC(C(C)C)CC2)c2n[nH]c(=O)o2)c1C [Example 39, N-((1S,2S)-2-(6-fluoro-2,3-dimethylphenyl)-1-(5-oxo-4,5-dihydro-1,3,4-oxadiazol-2-yl)propyl)-4-isopropylpiperidine-1-sulfonamide]"
5,10 to 100,"Cc1ccc(F)c([C@H](C)[C@H](NS(=O)(=O)N2CCCCC2C(=O)O)c2n[nH]c(=O)o2)c1C (stereo partly drawn) [Example 14, 1-(N-((1S,2S)-2-(6-fluoro-2,3-dimethylphenyl)-1-(5-oxo-4,5-dihydro-1,3,4-oxadiazol-2-yl)propyl)sulfamoyl)piperidine-2-carboxylic acid]"
6,10 to 100,"Cc1ccc(F)c([C@@H](C)[C@H](NS(=O)(=O)N2CCC(C(C)C)CC2)c2n[nH]c(=O)o2)c1C [Example 38, N-((1S,2R)-2-(6-fluoro-2,3-dimethylphenyl)-1-(5-oxo-4,5-dihydro-1,3,4-oxadiazol-2-yl)propyl)-4-isopropylpiperidine-1-sulfonamide]"
7,1 to 10,"Cc1ccc(F)c([C@H](C)[C@H](NS(=O)(=O)N2CCC(C(C)(C)C)CC2)c2n[nH]c(=O)o2)c1C [Example 132, 4-(tert-butyl)-N-((1S,2S)-2-(6-fluoro-2,3-dimethylphenyl)-1-(5-oxo-4,5-dihydro-1,3,4-oxadiazol-2-yl)propyl)piperidine-1-sulfonamide]"
8,10 to 100,"Cc1ccc(F)c([C@@H](C)[C@H](NS(=O)(=O)N2CCC(S(C)(=O)=O)CC2)c2n[nH]c(=O)o2)c1C [Example 51, N-((1S,2R)-2-(6-fluoro-2,3-dimethylphenyl)-1-(5-oxo-4,5-dihydro-1,3,4-oxadiazol-2-yl)propyl)-4-(methylsulfonyl)piperidine-1-sulfonamide]"
9,0.1 to 1,"Cc1ccc(F)c([C@@H](C)[C@H](NS(=O)(=O)N2CCC(Cl)CC2)c2n[nH]c(=O)o2)c1C [Example 5, 4-chloro-N-((1S,2R)-2-(6-fluoro-2,3-dimethylphenyl)-1-(5-oxo-4,5-dihydro-1,3,4-oxadiazol-2-yl)propyl)piperidine-1-sulfonamide]"
10,0.1 to 1,"Cc1ccc(F)c([C@@H](C)[C@H](NS(=O)(=O)N2CCc3ccccc3C2)c2n[nH]c(=O)o2)c1C [Example 135, N-((1S,2R)-2-(6-fluoro-2,3-dimethylphenyl)-1-(5-oxo-4,5-dihydro-1,3,4-oxadiazol-2-yl)propyl)-3,4-dihydroisoquinoline-2(1H)-sulfonamide]"
